Patent US20050032822A1, “Dithiocarbamate derivatives and their use as antibacterial agents” (priority 2001, published 2005)
Values after ≈ are worked out from the molar mass of the structure shown.

Tests used:
Assay type in all cases: cell-based
Conditions in all cases: Mueller-Hinton broth
[1] = tested on: multiresistent staphylococci (MRSA) strain 134/93; experiment: MIC, micro broth dilution, MRSA 134/93
[2] = tested on: multiresistent staphylococci (MRSA) strain 994/93; experiment: MIC, micro broth dilution, MRSA 994/93
[3] = tested on: Mycobacterium smegmatis SG 987; experiment: MIC, micro broth dilution, M. smegmatis SG 987
M aureum SB66 = experiment: MIC, micro broth dilution, M. aureum SB66
M. vaccae IMET 1010670 = experiment: MIC, micro broth dilution, M. vaccae IMET 10670
M. fortuitum B = experiment: MIC, micro broth dilution, M. fortuitum B

| Compound | minimal inhibitory concentrations MIC, 134/93 [1] [µg/mL] | minimal inhibitory concentrations MIC, 994/93 [2] [µg/mL] | minimal inhibitory concentrations MIC, SG 987 [3] [µg/mL] | minimal inhibitory concentrations MIC, SB 66 (M aureum SB66) [µg/mL] | minimal inhibitory concentrations MIC, 10670 (M. vaccae IMET 1010670) [µg/mL] | minimal inhibitory concentrations MIC, M. fort. (M. fortuitum B) [µg/mL] |
| --- | --- | --- | --- | --- | --- | --- |
| CCCOc1ncnc(SC(=S)N(C)C)c1[N+](=O)[O-] [Subst. Nr. 11, 4-propoxy-6-dimethyldithiocarbamoyl-5-nitropyrimidine] | 0.8 (≈ 2.65 µM) | 0.8 (≈ 2.65 µM) | 6.25 (≈ 20.7 µM) | 1.56 (≈ 5.16 µM) | 0.8 (≈ 2.65 µM) | 1.56 (≈ 5.16 µM) |
| CN(C)C(=S)Sc1ncnc(N(C)C)c1[N+](=O)[O-] [Subst. Nr. 8, 4-dimethylamino-6-dimethyldithiocarbamoyl-5-nitropyrimidine] | 3.12 (≈ 10.9 µM) | 6.52 (≈ 22.7 µM) | 12.5 (≈ 43.5 µM) | 6.25 (≈ 21.7 µM) | 3.12 (≈ 10.9 µM) | 12.5 (≈ 43.5 µM) |
| COc1ncnc(SC(=S)N(C)C)c1[N+](=O)[O-] [Subst. Nr. 14, 4-methoxy-6-dimethyldithiocarbamoyl-5-nitropyrimidine] | 6.25 (≈ 22.8 µM) | 3.12 (≈ 11.4 µM) | 3.12 (≈ 11.4 µM) | 0.8 (≈ 2.92 µM) | 3.12 (≈ 11.4 µM) | 0.8 (≈ 2.92 µM) |
| O=[N+]([O-])c1cnc(SC(=S)N2CCCC2)c([N+](=O)[O-])c1 [Subst. Nr. 18, 3,5-dinitro-2-tetramethylenedithiocarbamoylpyridine] | 1.56 (≈ 4.96 µM) | 12.5 (≈ 39.8 µM) | 6.25 (≈ 19.9 µM) | 3.12 (≈ 9.93 µM) | 3.12 (≈ 9.93 µM) | 3.12 (≈ 9.93 µM) |
| CCOc1nc(C)nc(SC(=S)N2CCCC2)c1[N+](=O)[O-] [Subst. Nr. 10, 4-ethoxy-2-methyl-6-tetramethylenedithiocarbamoyl-5-nitropyrimidine] | 3.12 (≈ 9.5 µM) | 0.8 (≈ 2.44 µM) | 12.5 (≈ 38.1 µM) | 25 (≈ 76.1 µM) | 12.5 (≈ 38.1 µM) | 50 (≈ 152 µM) |
| CNc1ncnc(SC(=S)N2CCCC2)c1[N+](=O)[O-] [Subst. Nr. 12, 4-methylamino-6-tetramethylenedithiocarbamoyl-5-nitropyrimidine] |  |  | 3.12 (≈ 10.4 µM) | 1.56 (≈ 5.21 µM) | 0.8 (≈ 2.67 µM) | 0.8 (≈ 2.67 µM) |
| CCN(CC)C(=S)Sc1ncnc(NC2CC2)c1[N+](=O)[O-] [Subst. Nr. 2, 4-cyclopropylamino-6-diethyldithiocarbamoyl-5-nitropyrimidine] | 1.56 (≈ 4.76 µM) | 3.12 (≈ 9.53 µM) | 6.25 (≈ 19.1 µM) | 12.5 (≈ 38.2 µM) | 3.12 (≈ 9.53 µM) | 6.25 (≈ 19.1 µM) |
| CCOc1nc(C)nc(SC(=S)N(CC)CC)c1[N+](=O)[O-] [Subst. Nr. 6, 4-ethoxy-2-methyl-6-diethyldithiocarbamoyl-5-nitropyrimidine] | 3.12 (≈ 9.44 µM) | 3.12 (≈ 9.44 µM) | 12.5 (≈ 37.8 µM) | 12.5 (≈ 37.8 µM) | 3.12 (≈ 9.44 µM) | 12.5 (≈ 37.8 µM) |
| CNc1ncnc(SC(=S)N(C)C)c1[N+](=O)[O-] [Subst. Nr. 7, 4-methylamino-6-dimethyldithiocarbamoyl-5-nitropyrimidine] | 1.56 (≈ 5.71 µM) | 3.12 (≈ 11.4 µM) | 12.5 (≈ 45.7 µM) | 6.25 (≈ 22.9 µM) | 3.12 (≈ 11.4 µM) | 6.25 (≈ 22.9 µM) |
| COc1ncnc(SC(=S)N2CCCC2)c1[N+](=O)[O-] [Subst. Nr. 15, 4-methoxy-6-tetramethylenedithiocarbamoyl-5-nitropyrimidine] | 3.12 (≈ 10.4 µM) | 3.12 (≈ 10.4 µM) | 3.12 (≈ 10.4 µM) | 1.56 (≈ 5.19 µM) | 0.8 (≈ 2.66 µM) | 1.56 (≈ 5.19 µM) |
| CN(C)C(=S)Sc1c(C#N)cc([N+](=O)[O-])cc1[N+](=O)[O-] [Subst. Nr. 9, 3,5-dinitro-2-dimethyldithiocarbamoylbenzonitrile] | 0.4 (≈ 1.28 µM) | 0.4 (≈ 1.28 µM) | 3.12 (≈ 9.99 µM) | 1.56 (≈ 4.99 µM) | 3.12 (≈ 9.99 µM) | 6.25 (≈ 20 µM) |
| NC(=O)c1cc([N+](=O)[O-])cc([N+](=O)[O-])c1SC(=S)N1CCCC1 [Subst. Nr. 17, 3,5-dinitro-2-tetramethylenedithiocarbamoylbenzamide] | 25 (≈ 70.1 µM) | 12.5 (≈ 35.1 µM) | 50 (≈ 140 µM) | 6.25 (≈ 17.5 µM) | 0.4 (≈ 1.12 µM) | 6.25 (≈ 17.5 µM) |
| NC(=O)c1cc([N+](=O)[O-])cc([N+](=O)[O-])c1SC(=S)N1CCCCCC1 [Subst. Nr. 16, 3,5-dinitro-2-hexamethylenedithiocarbamoylbenzamide] | 6.25 (≈ 16.3 µM) | 12.5 (≈ 32.5 µM) | 6.25 (≈ 16.3 µM) | 6.25 (≈ 16.3 µM) | 0.1 (≈ 0.26 µM) | 0.8 (≈ 2.08 µM) |
| 4-isopropylamino-6-diethyldithiocarbamoyl-5-nitropyrimidine [Subst. Nr. 1] | 3.12 | 25 | 12.5 | 25 | 3.12 | 25 |
| CCN(CC)C(=S)Sc1ncnc(NC)c1[N+](=O)[O-] [Subst. Nr. 4, 4-methylamino-6-diethyldithiocarbamoyl-5-nitropyrimidine] | 0.78 (≈ 2.59 µM) | 1.56 (≈ 5.18 µM) | 6.25 (≈ 20.7 µM) | 6.24 (≈ 20.7 µM) | 1.56 (≈ 5.18 µM) | 6.25 (≈ 20.7 µM) |
| CCN(CC)C(=S)Sc1ncnc(N(C)O)c1[N+](=O)[O-] [Subst. Nr. 5, 4-methylhydroxyamino-6-diethyldithiocarbamoyl-5-nitropyrimidine] | 1.56 (≈ 4.91 µM) | 3.12 (≈ 9.83 µM) | 6.25 (≈ 19.7 µM) | 12.5 (≈ 39.4 µM) | 3.12 (≈ 9.83 µM) | 6.25 (≈ 19.7 µM) |
| CN(C)c1ncnc(SC(=S)N2CCCC2)c1[N+](=O)[O-] [Subst. Nr. 13, 4-dimethylamino-6-tetramethylenedithiocarbamoyl-5-nitropyrimidine] | 3.12 (≈ 9.96 µM) | 1.56 (≈ 4.98 µM) | 3.12 (≈ 9.96 µM) | 3.12 (≈ 9.96 µM) | 1.56 (≈ 4.98 µM) | 1.56 (≈ 4.98 µM) |
| CCN(CC)C(=S)Sc1c(C#N)cc([N+](=O)[O-])cc1[N+](=O)[O-] [Subst. Nr. 3, 3,5-dinitro-2-diethyldithiocarbamoylbenzonitril] | 3.12 (≈ 9.17 µM) | 6.25 (≈ 18.4 µM) | 12.5 (≈ 36.7 µM) | 12.5 (≈ 36.7 µM) | 3.12 (≈ 9.17 µM) | 6.25 (≈ 18.4 µM) |
